Laboratory results from publication PMC5674900, “Identification of new channels by systematic analysis of the mitochondrial outer membrane” (The Journal of Cell Biology, 2017).
Positions count from the first letter of the chain named.

What was measured:
[1] = molecular target: T1, Ayr1 (Saccharomyces cerevisiae, UniProt P40471); experiment: planar lipid bilayer electrophysiology, reconstituted channel; assay type: biochemical; details: 1 mM NADPH; symmetrical 250 mM KCl, pH 7.0; activator of channel gating
T1 construct: ORF with His10 tag, expressed in E. coli BL21(DE3), purified in urea, reconstituted into liposomes / planar lipid bilayer; 33 kD
T1 sequence (P40471 1-297): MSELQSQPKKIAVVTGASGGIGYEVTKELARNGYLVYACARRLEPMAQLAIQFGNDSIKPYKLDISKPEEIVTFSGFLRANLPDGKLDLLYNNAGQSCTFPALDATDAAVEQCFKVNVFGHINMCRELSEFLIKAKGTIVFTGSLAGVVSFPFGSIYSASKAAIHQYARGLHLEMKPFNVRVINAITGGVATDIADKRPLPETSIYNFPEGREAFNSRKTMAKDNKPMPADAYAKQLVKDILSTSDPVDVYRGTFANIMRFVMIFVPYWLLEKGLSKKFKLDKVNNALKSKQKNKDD

[2] = molecular target: T2, Ayr1 (Saccharomyces cerevisiae, UniProt P40471, G20A/G22A); experiment: as above; assay type: biochemical; details: 1 mM NADPH; symmetrical 250 mM KCl, pH 7.0; activator of channel gating; NADPH-binding motif mutant, effect mostly abolished
T2 construct: ORF with His10 tag, expressed in E. coli BL21(DE3), purified in urea, reconstituted into liposomes / planar lipid bilayer; 33 kD
T2 sequence (P40471 1-297 G20A/G22A): T1 sequence (P40471 1-297) with G20A, G22A

NC(=O)C1=CN([C@@H]2O[C@H](COP(=O)(O)OP(=O)(O)OC[C@H]3O[C@@H](n4cnc5c(N)ncnc54)[C@H](OP(=O)(O)O)[C@@H]3O)[C@@H](O)[C@H]2O)C=CC1 [NADPH]
planar lipid bilayer electrophysiology, reconstituted channel [1]: NADPH strongly stimulated the frequency of gating between the distinct states | planar lipid bilayer electrophysiology, reconstituted channel [2]: the effect of NAPDH was mostly abolished, and no increase of the gating frequency was observed
